One assay concerns TNFα. The assay can be described thus: cells. Type of assay: cell-based, human. The note with it: Homo sapiens, Monocyte, LPS-stimulated human monocytes, TNFα by TR-FRET; read-out: EC50 TNF. (In general: TR-FRET usually uses a lanthanide donor and a delayed reading to cut background.)
The target in the next assay is IRAK4 enzyme (Homo sapiens (Human), UniProt Q9NWZ3). The assay can be described thus: biochemical. The assay is classed as biochemical. The note with it: IRAK4 enzyme, TR-FRET, 500 μM ATP.

As usually defined, the EC50 is the concentration at which the effect is half-maximal. One may read the IC50 as the midpoint of a concentration-inhibition curve.

IRAK4 enzyme, sequence (Q9NWZ3 whole entry): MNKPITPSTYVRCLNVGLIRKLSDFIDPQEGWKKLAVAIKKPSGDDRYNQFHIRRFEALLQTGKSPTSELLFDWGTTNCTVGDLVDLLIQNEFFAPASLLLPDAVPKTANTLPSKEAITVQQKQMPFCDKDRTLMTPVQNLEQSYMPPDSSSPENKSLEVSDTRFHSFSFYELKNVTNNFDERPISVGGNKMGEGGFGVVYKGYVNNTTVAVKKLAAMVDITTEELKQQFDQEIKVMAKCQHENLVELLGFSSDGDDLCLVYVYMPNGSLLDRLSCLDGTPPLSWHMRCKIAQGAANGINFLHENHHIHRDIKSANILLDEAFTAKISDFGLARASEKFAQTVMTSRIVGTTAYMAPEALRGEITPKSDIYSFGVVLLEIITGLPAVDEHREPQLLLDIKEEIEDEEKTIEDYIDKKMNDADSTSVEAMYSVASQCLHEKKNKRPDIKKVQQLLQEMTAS

On to `CC1(F)CN(C(=O)CNC(=O)c2cnc(-c3ccc4cc(C#N)cnn34)cc2NC23CCC(O)(CC2)CC3)C1` [Example 797, 6-(3-cyanopyrrolo[1,2-b]pyridazin-7-yl)-N-(2-(3-fluoro-3-methyl-azetidin-1-yl)-2-oxoethyl)-4-((4-hydroxybicyclo[2.2.2]octan-1-yl)amino) nicotinamide], for which the EC50 in the assay on TNFα came out at 38 nM. Besides, on IRAK4 enzyme, inhibition was half-maximal at 1 nM (IC50).
The corresponding values for `N#Cc1cnn2c(-c3cc(NC45CCC(O)(CC4)CC5)c(C(=O)NCC(=O)N4CCC(F)(F)C4)cn3)ccc2c1` [Example 798, 6-(3-cyanopyrrolo[1,2-b]pyridazin-7-yl)-N-(2-(3,3-difluoropyrrolidin-1-yl)-2-oxoethyl)-4-((4-hydroxybicyclo[2.2.2]octan-1-yl)amino) nicotinamide] are 42 nM and 1 nM.
The corresponding values for `N#Cc1cnn2c(-c3cc(NC45CCC(O)(CC4)CC5)c(C(=O)NCC(=O)N4CCC5(COC5)C4)cn3)ccc2c1` [Example 799, 6-(3-cyanopyrrolo[1,2-b]pyridazin-7-yl)-4-((4-hydroxybicyclo[2.2.2]octan-1-yl)amino)-N-(2-oxo-2-(2-oxa-6-azaspiro[3.4]octan-6-yl)ethyl)nicotinamide] are 62 nM and less than 1 nM.
On to `N#Cc1cnn2c(-c3cc(NC45CCC(O)(CC4)CC5)c(C(=O)NCC(=O)N4CC5(COC5)C4)cn3)ccc2c1` [Example 800, 6-(3-cyanopyrrolo[1,2-b]pyridazin-7-yl)-4-((4-hydroxybicyclo[2.2.2]octan-1-yl)amino)-N-(2-oxo-2-(2-oxa-6-azaspiro[3.3]heptan-6-yl)ethyl)nicotinamide], for which, in the assay with TNFα, the concentration giving a half-maximal response (EC50) was 133 nM. Further, it took 3 nM to reach half-maximal inhibition at IRAK4 enzyme (IC50).
With `CCOC(=O)CCNC(=O)c1cnc(-c2ccc3cc(C#N)cnn23)cc1NC12CCC(O)(CC1)CC2` [Example 801, ethyl 3-(6-(3-cyano-pyrrolo[1,2-b]pyridazin-7-yl)-4-((4-hydroxy-bicyclo[2.2.2]octan-1-yl)amino)nicotinamido) propanoate], the EC50 in the assay with TNFα was 57 nM. At IRAK4 enzyme, this molecule registered an IC50 of 1 nM.
Take `CN1CCN(C(=O)C23CCC(Nc4cc(-c5ccc6cc(C#N)cnn56)ncc4C(=O)NC[C@@H](F)C(C)(C)O)(CC2)CC3)CC1` [Example 802, (R)-6-(3-cyanopyrrolo[1,2-b]pyridazin-7-yl)-N-(2-fluoro-3-hydroxy-3-methylbutyl)-4-((4-(4-methylpiperazine-1-carbonyl)bicyclo[2.2.2]octan-1-yl)amino) nicotinamide]: the EC50 in the assay on TNFα worked out at 157 nM. The IC50 at IRAK4 enzyme amounted to 2 nM.
On to `CNC(=O)CCNC(=O)c1cnc(-c2ccc3cc(C#N)cnn23)cc1NC12CCC(O)(CC1)CC2` [Example 803, 6-(3-cyanopyrrolo[1,2-b]pyridazin-7-yl)-4-((4-hydroxybicyclo[2.2.2]octan-1-yl)amino)-N-(3-(methylamino)-3-oxopropyl)nicotinamide], for which the EC50 with TNFα amounted to 327 nM. On IRAK4 enzyme, this molecule yielded an IC50 of 1 nM.
Taken in the same sequence, the figures for `CN(C)C(=O)CCNC(=O)c1cnc(-c2ccc3cc(C#N)cnn23)cc1NC12CCC(O)(CC1)CC2` [Example 804, 6-(3-cyanopyrrolo[1,2-b]pyridazin-7-yl)-N-(3-(dimethylamino)-3-oxo-propyl)-4-((4-hydroxy-bicyclo[2.2.2]octan-1-yl)amino)nicotinamide] were 48 nM and less than 1 nM.
Take `N#Cc1cnn2c(-c3cc(NC45CCC(O)(CC4)CC5)c(C(=O)NCCC(=O)N4CC(F)(F)C4)cn3)ccc2c1` [Example 805, 6-(3-cyanopyrrolo[1,2-b]pyridazin-7-yl)-N-(3-(3,3-difluoroazetidin-1-yl)-3-oxopropyl)-4-((4-hydroxybicyclo[2.2.2]octan-1-yl)amino) nicotinamide]: the EC50 in the assay with TNFα came out at 129 nM. Besides, the IC50 against IRAK4 enzyme is less than 1 nM.
In the case of `CN1CCN(C(=O)CCNC(=O)c2cnc(-c3ccc4cc(C#N)cnn34)cc2NC23CCC(O)(CC2)CC3)CC1` [Example 806, 6-(3-cyanopyrrolo[1,2-b]pyridazin-7-yl)-4-((4-hydroxybicyclo[2.2.2]octan-1-yl)amino)-N-(3-(4-methylpiperazin-1-yl)-3-oxopropyl)nicotinamide], the EC50 with TNFα was found to be 349 nM. This molecule gave an IC50 at IRAK4 enzyme of 3 nM.
On to `CC(C)Nc1cc(-c2ccc3cc(C#N)cnn23)ncc1C(=O)NCC(=O)N1CC(F)(F)C1` [Example 807, 6-(3-cyanopyrrolo[1,2-b]pyridazin-7-yl)-N-(2-(3,3-difluoroazetidin-1-yl)-2-oxoethyl)-4-(isopropylamino) nicotinamide], for which the EC50 with TNFα stood at 75 nM. Also, the IC50 at IRAK4 enzyme turned out to be 2 nM.
Taken in the same sequence, the figures for `CC(C)(C)OC(=O)CNC(=O)c1cnc(-c2ccc3cc(C#N)cnn23)cc1NC12CCC(O)(CC1)CC2` [Example 808, tert-butyl (6-(3-cyano-pyrrolo[1,2-b]pyridazin-7-yl)-4-((4-hydroxy-bicyclo[2.2.2]octan-1-yl)amino)nicotinoyl) glycinate] were 15 nM and less than 1 nM.
Taken in the same sequence, the figures for `N#Cc1cnn2c(-c3cc(NC45CCC(O)(CC4)CC5)c(C(=O)NCCN4CCCC4=O)cn3)ccc2c1` [Example 809, 6-(3-cyanopyrrolo[1,2-b]pyridazin-7-yl)-4-((4-hydroxybicyclo[2.2.2]octan-1-yl)amino)-N-(2-(2-oxopyrrolidin-1-yl)ethyl)nicotinamide] were 166 nM and 1 nM.
Consider `CC(C)(O)C(=O)CNC(=O)c1cnc(-c2ccc3cc(C#N)cnn23)cc1NC12CCC(O)(CC1)CC2` [Example 810, 6-(3-cyanopyrrolo[1,2-b]pyridazin-7-yl)-N-(3-hydroxy-3-methyl-2-oxobutyl)-4-((4-hydroxy-bicyclo[2.2.2]octan-1-yl)amino)nicotinamide], for which the EC50 in the assay on TNFα came to 9 nM. Moreover, the IC50 at IRAK4 enzyme is less than 1 nM.
For the molecule `N#Cc1cnn2c(-c3cc(NC45CCC(O)(CC4)CC5)c(C(=O)NCC(=O)c4ccccc4)cn3)ccc2c1` [Example 811, 6-(3-cyanopyrrolo[1,2-b]pyridazin-7-yl)-4-((4-hydroxybicyclo[2.2.2]octan-1-yl)amino)-N-(2-oxo-2-phenylethyl) nicotinamide], the EC50 in the assay on TNFα was found to be 32 nM. The molecule further returned an IC50 against IRAK4 enzyme of less than 1 nM.
As for `CC(C)Nc1cc(-c2ccc3cc(C#N)cnn23)ncc1C(=O)NCC(=O)OC(C)(C)C` [Example 812, tert-butyl (6-(3-cyano-pyrrolo[1,2-b]pyridazin-7-yl)-4-(isopropylamino)nicotinoyl)glycinate], the EC50 in the assay on TNFα is 38 nM. On IRAK4 enzyme, this molecule came in with an IC50 of less than 1 nM.
Turning to `CC(C)(C)NC(=O)CNC(=O)c1cnc(-c2ccc3cc(C#N)cnn23)cc1NC12CCC(O)(CC1)CC2` [Example 813, N-(2-(tert-butylamino)-2-oxoethyl)-6-(3-cyano-pyrrolo[1,2-b]pyridazin-7-yl)-4-((4-hydroxy-bicyclo[2.2.2]octan-1-yl)amino)nicotinamide], the EC50 in the assay on TNFα was 92 nM. Besides, on IRAK4 enzyme, the IC50 was less than 1 nM.
Taken in the same sequence, the figures for `CN(C(=O)CNC(=O)c1cnc(-c2ccc3cc(C#N)cnn23)cc1NC12CCC(O)(CC1)CC2)C(C)(C)C` [Example 814, N-(2-(tert-butyl(methyl)amino)-2-oxoethyl)-6-(3-cyanopyrrolo[1,2-b]pyridazin-7-yl)-4-((4-hydroxybicyclo[2.2.2]octan-1-yl)amino) nicotinamide] were 40 nM and less than 1 nM.
